Measurements taken from article PMC11359332, “Characterization of Neonicotinoid Metabolites by Cytochrome P450-Mediated Metabolism in Poultry” (Toxics, 2024).

Assays:
[1] = test system: chicken liver microsomes (CYP); assay: In vitro CYP metabolism of neonicotinoids, chicken liver microsomes, metabolites quantified by LC/MS/MS; assay type: in vitro ADME, chicken (Gallus domesticus)
Description: (§1) All experimental protocols and animal-handling procedures were performed following the guidelines for animal experiments and approved by the Animal Ethics Research Committee of the Faculty of Veterinary Medicine, […] University, Bangkok, Thailand (Approval number: […]-026). Liver samples of chickens (Gallus domesticus, n = 5), ducks (Anas platyrhynchos, n = 5), […] domesticus, n = 3), quails (Coturnix coturnix, n = 5), and rats (Rattus norvegicus, n = 3) were obtained from the previous study. The liver microsomal fractions used in this study were prepared by the method of Omura and Sato [28] with slight modifications. Briefly, liver sample was homogenized with 0.1 M potassium phosphate buffer (KPB, pH 7.4) and centrifuged at 9000× g at 4 °C for 20 min. The supernatant was collected and centrifuged twice at 105,000× g at 4 °C for 60 min. Microsomal pellets were homogenized with 0.1 M KPB and measured for protein concentrations using the BCA protein assay kit (Thermo Fisher Scientific, Rockford, IL, USA) before being frozen using liquid nitrogen, for storage at -80 °C until analysis. The assay of neonicotinoid metabolism using liver microsome was modified from that of a previous study. Since we had insufficient liver samples to produce the microsomes of geese and quails, the substrates of imidacloprid and clothianidin were not applied for those microsome reactions. However, microsomes of chicken, ducks, and rats were used for all substrate reactions. […] Then, the reaction was initiated by adding a mixture of G6PDH (2 IU/mL) and β-NADPH (0.5 mM), and continuously incubating for 30 min. Then, 0.1% formic acid in acetonitrile was added to stop the reaction. After that, the reaction sample was placed on ice for 15 min before centrifugation at 12,000 g for 10 min. The supernatant (100 μL) was collected and then spiked with neonicotinoid internal standard mixtures (50 μL), then evaporated using a centrifugal evaporator (CVE-200D with UT-2000, EYELA, Tokyo, Japan). The dried sample was re-dissolved with 20% methanol (v/v) and transferred into vials for chemical analysis. […] For all analyses, mobile phase A consisted of 0.1% formic acid + 10 mM ammonium acetate in distilled water and mobile phase B consisted of 0.1% formic acid + 10 mM ammonium acetate in 100% MeOH. The injection volume of 5 μL, the flow rate of 0.40 mL/min with gradient elution, and a column temperature of 45 °C were used for all experiments. The ion signals were acquired with multiple-reaction monitoring (MRM) in positive ionization mode. In the current study, the liver microsome was spiked with deuterium-labelled internal standards (ISs) of the target neonicotinoids before the extraction and purification processes. […] The calibration curves were created using 10-point calibration standards ranging from 0.05 to 20 ng/mL. […] The accuracy of the current analytical method was validated and determined using matrix-spiked neonicotinoid standards at two concentrations, 1 ng/mL and 10 ng/mL. The thirteen target compounds were detected with recovery rates ranging from 87 to 101% at 1 ng/mL, and 86 to 116% at 10 ng/mL. […] In the current study, all the assays were performed in duplicates and the negative controls (the reaction mixture without substrate) were prepared for each sample. […] Statistical analyses were conducted using the JMP […] software (SAS Institute, Carry, NC, USA). One-way ANOVA with post-hoc Tukey-Kramer multiple comparison test was used to compare the Vmax/Km ratio among species. All results were presented as the mean ± standard deviation (SD).

[2] = test system: duck liver microsomes (CYP); assay: In vitro CYP metabolism of neonicotinoids, duck liver microsomes, metabolites quantified by LC/MS/MS; assay type: in vitro ADME, duck (Anas platyrhynchos)
Description: as §1

[3] = test system: goose liver microsomes (CYP); assay: In vitro CYP metabolism of neonicotinoids, goose liver microsomes, metabolites quantified by LC/MS/MS; assay type: in vitro ADME, goose (Anser domesticus)
Description: (§2) All experimental protocols and animal-handling procedures were performed following the guidelines for animal experiments and approved by the Animal Ethics Research Committee of the Faculty of Veterinary Medicine, […] University, Bangkok, Thailand (Approval number: […]-026). Liver samples of chickens (Gallus domesticus, n = 5), ducks (Anas platyrhynchos, n = 5), […] domesticus, n = 3), quails (Coturnix coturnix, n = 5), and rats (Rattus norvegicus, n = 3) were obtained from the previous study. The liver microsomal fractions used in this study were prepared by the method of Omura and Sato [28] with slight modifications. Briefly, liver sample was homogenized with 0.1 M potassium phosphate buffer (KPB, pH 7.4) and centrifuged at 9000× g at 4 °C for 20 min. The supernatant was collected and centrifuged twice at 105,000× g at 4 °C for 60 min. Microsomal pellets were homogenized with 0.1 M KPB and measured for protein concentrations using the BCA protein assay kit (Thermo Fisher Scientific, Rockford, IL, USA) before being frozen using liquid nitrogen, for storage at -80 °C until analysis. […] The accuracy of the current analytical method was validated and determined using matrix-spiked neonicotinoid standards at two concentrations, 1 ng/mL and 10 ng/mL. The thirteen target compounds were detected with recovery rates ranging from 87 to 101% at 1 ng/mL, and 86 to 116% at 10 ng/mL. […]

[4] = test system: quail liver microsomes (CYP); assay: In vitro CYP metabolism of neonicotinoids, quail liver microsomes, metabolites quantified by LC/MS/MS; assay type: in vitro ADME, quail (Coturnix coturnix)
Description: as §2

[5] = test system: rat liver microsomes (CYP); assay: In vitro CYP metabolism of neonicotinoids, rat liver microsomes, metabolites quantified by LC/MS/MS; assay type: in vitro ADME
Description: as §1

[6] = test system: liver microsomes from various species; assay: Metabolite screening by LC/Q-TOF in reaction mixtures using liver microsomes from various species; assay type: in vitro ADME, chicken, duck, goose, quail, rat
Description: The assay of neonicotinoid metabolism using liver microsome was modified from that of a previous study. Since we had insufficient liver samples to produce the microsomes of geese and quails, the substrates of imidacloprid and clothianidin were not applied for those microsome reactions. However, microsomes of chicken, ducks, and rats were used for all substrate reactions. […] Then, the reaction was initiated by adding a mixture of G6PDH (2 IU/mL) and β-NADPH (0.5 mM), and continuously incubating for 30 min. Then, 0.1% formic acid in acetonitrile was added to stop the reaction. After that, the reaction sample was placed on ice for 15 min before centrifugation at 12,000 g for 10 min. The supernatant (100 μL) was collected and then spiked with neonicotinoid internal standard mixtures (50 μL), then evaporated using a centrifugal evaporator (CVE-200D with UT-2000, EYELA, Tokyo, Japan). The dried sample was re-dissolved with 20% methanol (v/v) and transferred into vials for chemical analysis.
A liquid chromatograph quadrupole time-of-flight (6546 LC/Q-TOF; Agilent Technologies, Santa Clara, CA, USA) operated with a 1.8 μm Eclipse Plus C18 RRHD analytical column (2.1 × 150 mm; Agilent Technologies, CA, USA) at a flow rate of 0.25 mL/min was used in the screening test to search for chromatographic peaks with the exact molecular mass of the possible neonicotinoid metabolites (Table S3). The mobile phases were 10 mM ammonium formate in water (A) and 10 mM ammonium formate in MeOH (B). The gradient elution of mobile phase B was set as follows: 2% (0–1 min), 100% (1–30 min), continued 100% (30–39 min), and a 4 min post-run at 2%. An injection volume was 5 μL and the column temperature was maintained at 45 °C. The expected formulas of potential metabolites of the four neonicotinoids were derived from previous publications on neonicotinoid metabolites in environment samples [29, 30] and in animals.
Several neonicotinoid metabolites were formed in our current in vitro biotransformation assays (Table 1).

[7] = test system: nicotinic acetylcholine receptors; settings: cited from earlier work
fish leukocytes = test system: fish leukocytes; parameters: method as in PMID 38594566; settings: compared with parent substances; cited from earlier work
[8] = clothianidin to clothianidin-urea
[9] = clothianidin to dm-clothianidin
[10] = clothianidin to dn-clothianidin
[11] = imidacloprid to 4OH-imidacloprid
[12] = imidacloprid to 5OH-imidacloprid
[13] = imidacloprid to dn-imidacloprid
[14] = imidacloprid to imidacloprid-olefin

C/C(=N\C#N)N(C)Cc1ccc(Cl)nc1 [Acetamiprid]
Vmax ([1]; acetamiprid to dm-acetamiprid): 1.2 ± 0.0 pmol/min/mg protein
Vmax ([2]; acetamiprid to dm-acetamiprid): 0.4 ± 0.0 pmol/min/mg protein
Vmax ([3]; acetamiprid to dm-acetamiprid): 1.3 ± 0.2 pmol/min/mg protein
Vmax ([4]; acetamiprid to dm-acetamiprid): 0.3 ± 0.1 pmol/min/mg protein
Vmax ([5]; acetamiprid to dm-acetamiprid): 0.1 ± 0.0 pmol/min/mg protein
Species in which metabolite N-[(6-chloro-3-pyridyl) methyl]-N-methyl acetamidine was identified ([6]; substrate acetamiprid 800 µM): Duck, Goose, Quail, Rat
Species in which metabolite N-desmethyl-acetamiprid was identified ([6]; substrate acetamiprid 800 µM): Chicken, Duck, Goose, Quail, Rat
Species in which metabolite N-methyl(6-chloro-3-pyridyl) methylamine was identified ([6]; substrate acetamiprid 800 µM): Chicken, Duck, Goose, Quail, Rat

CN/C(=N\[N+](=O)[O-])NCc1cnc(Cl)s1 [Clothianidin]
Vmax [1, 8]: 0.008 ± 0.001 pmol/min/mg protein
Vmax [1, 9]: 4.4 ± 1.2 pmol/min/mg protein
Vmax [1, 10]: 0.1 ± 0.0 pmol/min/mg protein
Vmax [2, 8]: 0.005 ± 0.001 pmol/min/mg protein
Vmax [2, 9]: 2.9 ± 1.3 pmol/min/mg protein
Vmax [2, 10]: 0.3 ± 0.1 pmol/min/mg protein
Vmax [5, 8]: 0.012 ± 0.002 pmol/min/mg protein
Vmax [5, 10]: 0.2 ± 0.0 pmol/min/mg protein
Species in which metabolite clothianidin-urea was identified ([6]; substrate clothianidin 800 µM, goose and quail not analyzed): Chicken, Duck, Rat
Affinity to nicotinic acetylcholine receptors [7]: high affinity to nicotinic acetylcholine receptors

O=[N+]([O-])NC1=NCCN1Cc1ccc(Cl)nc1 [Imidacloprid]
Vmax [1, 11]: 0.5 ± 0.0 pmol/min/mg protein
Vmax [1, 12]: 0.5 ± 0.0 pmol/min/mg protein
Vmax [1, 13]: 1.0 ± 0.7 pmol/min/mg protein
Vmax [1, 14]: 0.2 ± 0.0 pmol/min/mg protein
Vmax [2, 11]: 0.1 ± 0.0 pmol/min/mg protein
Vmax [2, 12]: 0.1 ± 0.0 pmol/min/mg protein
Vmax [2, 13]: 0.2 ± 0.0 pmol/min/mg protein
Vmax [2, 14]: 0.03 ± 0.0 pmol/min/mg protein
Vmax [5, 11]: 0.1 ± 0.0 pmol/min/mg protein
Vmax [5, 12]: 0.1 ± 0.0 pmol/min/mg protein
Vmax [5, 13]: 0.1 ± 0.0 pmol/min/mg protein

CN1COCN(Cc2cnc(Cl)s2)/C1=N\[N+](=O)[O-] [Thiamethoxam]
Vmax ([1]; thiamethoxam to clothianidin): 1.2 ± 0.0 pmol/min/mg protein
Vmax ([1]; thiamethoxam to dm-clothianidin): 0.01 ± 0.00 pmol/min/mg protein
Vmax ([2]; thiamethoxam to clothianidin): 0.1 ± 0.0 pmol/min/mg protein
Vmax ([3]; thiamethoxam to clothianidin): 0.2 ± 0.1 pmol/min/mg protein
Vmax ([4]; thiamethoxam to clothianidin): 0.4 ± 0.1 pmol/min/mg protein
Vmax ([5]; thiamethoxam to clothianidin): 0.1 ± 0.0 pmol/min/mg protein
Species in which metabolite N-desmethyl-thiamethoxam was identified ([6]; substrate thiamethoxam 800 µM): Chicken, Duck, Goose, Quail, Rat
Species in which metabolite clothianidin was identified ([6]; substrate thiamethoxam 800 µM): Chicken, Duck, Goose, Quail, Rat
Species in which metabolite clothianidin-urea was identified ([6]; substrate thiamethoxam 800 µM): Chicken, Duck, Goose, Quail, Rat
Species in which metabolite dm-clothianidin was identified ([6]; substrate thiamethoxam 800 µM): Chicken
Species in which metabolite thiamethoxam-urea was identified ([6]; substrate thiamethoxam 800 µM): Chicken, Duck, Goose, Quail, Rat

NC1=NCCN1Cc1ccc(Cl)nc1 [dn-imidacloprid, desnitro-imidacloprid]
Affinity for nicotinic acetylcholine receptors ([7]; compared with imidacloprid): higher affinity for nicotinic acetylcholine receptors than imidacloprid
Cytotoxicity potency on fish leukocytes (fish leukocytes): higher cytotoxicity potency on fish leukocytes than their parent substances

NC(=O)N=C1SCCN1Cc1ccc(Cl)nc1 [thiacloprid-amide]
Cytotoxicity potency on fish leukocytes (fish leukocytes): higher cytotoxicity potency on fish leukocytes than their parent substances
